“Also recorded” adds a separate entry of the source.
Key:
mCMV [1] = assay: Plaque size assay; settings: varying drug concentrations, measured 5 dpi
[2] = test system: Vesicular Stomatitis Virus; type: cell-based, VSV
Sindbis virus (SIN) = type: cell-based
mCMV [3] = type: in vivo, mouse; settings: for parameters of somatic development: body and tail length, eyelid opening, fur maturation; for CMV load in liver and lungs: treated PND 1 to 10, plaque assay at PND 12
mCMV [4] = settings: for antiviral activity after drug removal: 24 hrs pre-treatment, compounds removed before virus inoculation; for effect on mCMV infection: cells pre-treated with drug prior to mCMV inoculation; for CMV inhibition with delayed drug addition: compounds added 2 to 12 hours after virus inoculation; for number of infected cells: drug at low concentration (100 μM) present 0-48 hpi, NIH/3T3, MOI 0.1
[5] = cited from earlier work
mCMV [6] = assay: Virucidal activity assay on free virions; settings: 100 μM with undiluted mCMV for 2 hours at 4° C. or 37° C., then diluted to 10 nM
mCMV [7] = assay: Viral yield reduction assay after short drug exposure; settings: 100 μM for 2 hrs at viral challenge, supernatants at 72 hpi
mCMV [8] = assay: Viral binding and fusion experiments (4° C./37° C. shift); settings: 100 μM, NIH/3T3, MOI 0.1, infectivity at 48 hpi
CMV IE1/2 promoter = settings: NIH/3T3, VPD 1 mM for 24 hours, plasmid transfection
Protocol: To investigate the effects on the immediate early phase of viral replication, NIH/3T3 cells exposed to VPD (1 mM) for 24 hours, were transfected with a CMV promoter (IE1/IE2)-driven reporter plasmid (pCMV-tdTomato) expressing the red fluorescent protein tdTomato.

mCMV [9] = assay: Ethidium homodimer (EthD-1) cytotoxicity assay of mCMV-infected NIH/3T3 cells; settings: NIH/3T3, 24 hrs pre-treatment, MOI 0.4, 72 hpi
hCMV [10] = assay: Quantification of hCMV-GFP infection in normal human dermal fibroblasts and U-373 glioblastoma cells; settings: pre-treatment prior to hCMV-GFP inoculation
mCMV [11] = assay: Vertical pole test; type: in vivo, mouse; settings: P28-P30; 3 out of 20 infected untreated failed
Protocol: Briefly, mice were individually placed head-downward at the top of a vertical rough-surfaced pole (diameter, 8 mm; height, 55 cm) and allowed to descend in a round of habituation. Then, mice were placed head-upward at the top of the pole. The time required for the animal to descend to the floor was recorded as the locomotor activity time (TLA), with a maximum duration of 120 seconds. If a mouse fell, was unable to turn downward or was unable to climb down, a default locomotor activity time value was recorded as 120 seconds. Each mouse was given three trials with a 30 second-recovery period between trials.

mCMV [12] = assay: Challenging beam traversal test; type: in vivo, mouse; settings: P28-P30
mCMV [13] = assay: Three-chamber test of sociability and social novelty; type: in vivo, mouse; settings: 5 weeks of age
Excerpt: Sociability and preference for social novelty were investigated at 5 weeks of age in a three-compartment apparatus (Yang, et al., 2011, Curr. Protoc. Neurosci. Chapter 8:Unit 8.26). Initially, test and control animals were allowed to explore the apparatus freely for a 10-min period (habituation). For the social approach paradigm, an unfamiliar conspecific (same sex, similar age and weight) animal was placed into one of the side compartments and restrained by a small wire object (‘social cage’). The compartment on the other side contained an empty wire object (‘empty cage’). The test subject was then released into the center compartment and allowed to explore the three-compartment apparatus freely for 10 min. Behavior was videotaped and assessed for the time(s) that the test subject spent in the three compartments and in close proximity to the social and empty cages. For the social-novelty paradigm, another unfamiliar conspecific animal was placed in the previously empty wire object (‘novel cage’). The behavior of the test mouse was recorded for 10 min and assessed for the time spent exploring the known and novel conspecifics.

mCMV [14] = assay: Exploratory activity in adapted small open field; type: in vivo, mouse; settings: P30-40, 3-min session
hCMV [15] = assay: hCMV virus yield reduction assay in human fetal astrocytes; type: cell-based, human CMV
Excerpt: In the virus yield reduction assay, after viral adsorption, cells were washed twice with PBS and replenished with fresh medium containing the compounds to be tested. At 72 hpi medium was collected and titered by plaque assay using HDF monolayers to assess the drug-mediated inhibition of virus replication in human fetal brain astrocytes.

mCMV [16] = settings: P2 to P14
[17] = test system: Vesicular Stomatitis Virus; settings: Ornaghi, et al., 2016; cited from earlier work
mCMV [18] = assay: Hindlimb clasping test; settings: P28-P30
hCMV [19] = assay: hCMV infectivity assay in human fetal astrocytes; settings: 100 μM, 1 h pre-treatment, MOI 0.1, 48 hpi
hCMV [20] = assay: hCMV attachment and internalization in human fetal astrocytes by qPCR; settings: 100 μM

Row | Compound | CMV plaque size (mCMV [1]) | parameters of somatic development (mCMV [3]) | CMV load in liver and lungs (mCMV [3]) | antiviral activity after drug removal (mCMV [4]) | effect on mCMV infection (mCMV [4]) | CMV inhibition with delayed drug addition (mCMV [4]) | number of infected cells (mCMV [4]) [%] | virucidal activity on virions (mCMV [6]) | virus production (mCMV [7]) | CMV binding to cells (mCMV [8]) | effect on human CMV infection (hCMV [10]) | other results
1 | CCCC(C(N)=O)C(C)CC (stereo not shown) [SPD, 3-methyl-2-propylpentanamide] | slightly more effective than either valpromide or valnoctamide; also recorded: reduced |  |  |  |  |  |  |  |  |  |  | 
2 | CCC(C)C(C(N)=O)C(C)C (stereo not shown) [SID, 2-isopropyl-3-methylpentanamide] | reduced |  |  |  |  |  |  |  |  |  |  | 
3 | CCCC(CCC)C(N)=O [VPD, 2-propylpentanamide] | reduced | markedly improved | markedly decreased | loss of antiviral activity | robust dose-dependent inhibitory effect | no inhibition | 50 | No direct inactivation of virions | significantly decreases virus production | inhibit CMV binding to cells | inhibited human CMV infection | VSV infection compared to control [2]: 101%±5%; SIN infection compared to control (Sindbis virus (SIN)): 107%±3%; fraction metabolized to VPA ([5]; humans): > 80%; number of red (tdTomato) cells compared to control (CMV IE1/2 promoter): 96%±4%; viral-mediated cell death / cell survival (mCMV [9]): increased cell survival
4 | CCC(C)C(CC)C(N)=O (stereo not shown) [VCD, 2-ethyl-3-methylpentanamide] | reduced | markedly improved | markedly decreased | loss of antiviral activity | inhibited | no inhibition | 50 | No direct inactivation of virions | significantly decreases virus production | inhibit CMV binding to cells | inhibited | mice failing the vertical pole test (mCMV [11]): no VCD-treated mice or uninfected controls failed; beam traversal time and number of slips (mCMV [12]): significantly improved the coordination and balance; preference for social novelty (mCMV [13]): restored social novelty responses; rearing and nose-poking events (mCMV [14]): Normal levels of exploratory activity were restored; reduction in viral titer (hCMV [15]; 100 μM VCD versus vehicle): approximately 100 fold; viral titer (hCMV [15]; 100 μM VCD, MOI 0.1, vehicle 4.92×10^5±5.84×10^4): 6.31×10^3±3.06×10^3 PFU/ml; acquisition of neurological milestones in infected pups (mCMV [16]): timely acquisition of neurological milestones; antiviral effect on vesicular stomatitis virus [17]: no antiviral effect; conversion to corresponding free acid (valnoctic acid) ([5]; in vivo): little conversion; hindlimb clasping response (mCMV [18]): completely reversed this altered behavior; hCMV infectivity (GFP-positive cells) (hCMV [19]): substantially decreased hCMV infectivity; decrease of virus bound to the cell surface versus control (hCMV [20]; 4° C.): 60%; CMV fusion/internalization (hCMV [20]; 37° C.): did not appear to block CMV fusion/internalization
5 | ivermectin |  |  |  |  |  |  |  |  |  |  |  | CMV infection compared to control (mCMV [4]; ivermectin used at 1 μM, CMV type not stated): 99%±9%
